The test system of the data set is rodent lifetime carcinogenesis bioassay, tumor incidence TD50. The experiment in a line: chronic cancer bioassays in animals – CPDB, compiled studies (AID 1745844).
Setting [1] is: mouse, strain A/He, females, in feed, site: liver, lesion: hepatoma, dosed 104 weeks, study length 104 weeks.
Setting [2] is: mouse, strain A/He, females, in feed, site: lung, lesion: one or several types, types not named, dosed 104 weeks, study length 104 weeks.
[3] abbreviates: mouse, strain C3HfB, females, in feed, site: lung, lesion: one or several types, types not named, dosed 104 weeks, study length 104 weeks.
[4] abbreviates: mouse, strain CFLP, females, in feed, site: liver, lesion: hepatocellular tumor, dosed 78 weeks, study length 78 weeks.

Drawing on PubChem BioAssay AID1745844 (Carcinogenic Potency Database (CPDB), 2022), this text covers TD50 and carcinogen call for seven molecules.

As a reminder, the TD50 is the 50% point of the dose-response relation for the toxic effect studied.

Values joined by “and” are separate entries in the source; they are usually repeats but may differ in a detail not shown here. Identical values can stand only once. Active and inactive are the calls of the source. How the calls were made is not given here.

With `CCCCCCCC(=O)OCC(COC(=O)CCCCCCC)OC(=O)CCCCCCC`, the TD50 (rat, strain Fischer 344, males, by gavage, site: any site (literature study), lesion: several types, types named in the paper, dosed 104 weeks, study length 104 weeks) was 69900 mg/kg/day; the TD50 (rat, strain Fischer 344, males, by gavage, site: forestomach, lesion: squamous-cell papilloma, dosed 104 weeks, study length 104 weeks) stood at 15700 mg/kg/day; the TD50 (rat, strain Fischer 344, males, by gavage, site: liver, lesion: hepatocellular adenoma + hepatoblastoma + hepatocellular carcinoma, dosed 104 weeks, study length 104 weeks) was 37100 mg/kg/day; the TD50 (rat, strain Fischer 344, males, by gavage, site: liver, lesion: hepatocellular adenoma, dosed 104 weeks, study length 104 weeks) is 37100 mg/kg/day; the TD50 (rat, strain Fischer 344, males, by gavage, site: pancreas, lesion: acinar-cell adenoma, dosed 104 weeks, study length 104 weeks) is 5490 mg/kg/day (inactive).

Turning to `C#C[C@]1(O)CC[C@H]2[C@@H]3CCc4cc(OC)ccc4[C@H]3CC[C@@]21C` (tested in a mixture with another compound), the TD50 was 25.2 mg/kg/day (inactive) under setting [1]; 4.62 mg/kg/day (inactive) and 4.31 mg/kg/day (inactive) under setting [2]; 2 mg/kg/day (mouse, strain BALB/c, females, in feed, site: several sites, sites named in the paper, lesion: squamous-cell carcinoma, dosed 86 weeks, study length 86 weeks); 3.93 mg/kg/day (inactive) (mouse, strain C3HfB, females, in feed, site: all sites, lesion: fibrosarcoma, dosed 104 weeks, study length 104 weeks); 27.6 mg/kg/day (inactive) under setting [3]; 1.75 mg/kg/day and 1.82 mg/kg/day (mouse, strain C57BL/He, females, in feed, site: hypophysis, lesion: chromophobe adenoma, dosed 104 weeks, study length 104 weeks). For the same molecule, the TD50 was 20.7 mg/kg/day (inactive) (mouse, strain C57BL/He, females, in feed, site: lung, lesion: one or several types, types not named, dosed 104 weeks, study length 104 weeks); 0.332 mg/kg/day (inactive) (mouse, strain C57L/He x 129/Rr x C3HeB/De x SWR/Ly, females, by gavage, site: any site (literature study), lesion: several types, types named in the paper, dosed 69 weeks, study length 82 weeks); 0.151 mg/kg/day (mouse, strain C57L, females, by gavage, site: pituitary gland, lesion: one or several types, types not named, dosed 89 weeks, study length 89 weeks); 143 mg/kg/day (inactive) under setting [4]; 20.8 mg/kg/day (inactive) (mouse, strain Swiss Webster, females, by gavage, site: liver, lesion: hepatocellular tumor, dosed 65 weeks, study length 80 weeks). The carcinogen call is “negative (inactive)” under setting [1]; “negative (inactive)” under setting [2]; “negative (inactive)” (mouse, strain BALB/cHe, females, in feed, site: lung, lesion: one or several types, types not named, dosed 104 weeks, study length 104 weeks); “negative (inactive)” (mouse, strain C3H/He (MTV+), females, in feed, site: liver, lesion: hepatoma, dosed 104 weeks, study length 104 weeks); “negative (inactive)” (mouse, strain C3HfB, females, in feed, site: liver, lesion: hepatoma, dosed 104 weeks, study length 104 weeks); “negative (inactive)” under setting [3]. For the same molecule, the carcinogen call by setting is: (mouse, strain C57BL/He, females, in feed, site: liver, lesion: hepatoma, dosed 104 weeks, study length 104 weeks) “negative (inactive)”; (mouse, strain C57L/He x 129/Rr x C3HeB/De x SWR/Ly, females, by gavage, site: any site (literature study), lesion: several types, types named in the paper, dosed 69 weeks, study length 69 weeks) “negative (inactive)”; (mouse, strain C57L/He x 129/Rr x C3HeB/De x SWR/Ly, females, by gavage, site: lung, lesion: one or several types, types not named, dosed 69 weeks, study length 69 weeks) “negative (inactive)”; under setting [4], “negative (inactive)”; (mouse, strain CFLP, males, in feed, site: liver, lesion: hepatocellular tumor, dosed 78 weeks, study length 78 weeks) “negative (inactive)”.

`CC(=O)N[C@@H](CS)C(=O)O`: where the note is “rat, strain Fischer 344, males, in feed, site: liver, lesion: several types, types named in the paper, dosed 98 weeks, study length 98 weeks”, the carcinogen call is “negative (inactive)”.

Take `O=[N+]([O-])c1cccc2ccccc12`: the carcinogen call (mouse, strain B6C3F1, females, in feed, site: any site (literature study), lesion: several types, types named in the paper, dosed 78 weeks, study length 96 weeks) is “negative (inactive)”; the carcinogen call (mouse, strain B6C3F1, males, in feed, site: any site (literature study), lesion: several types, types named in the paper, dosed 78 weeks, study length 96 weeks) was “negative (inactive)”; the carcinogen call (rat, strain Fischer 344, females, in feed, site: any site (literature study), lesion: several types, types named in the paper, dosed 78 weeks, study length 107 weeks) is “negative (inactive)”; the carcinogen call (rat, strain Fischer 344, males, in feed, site: any site (literature study), lesion: several types, types named in the paper, dosed 78 weeks, study length 107 weeks) is “negative (inactive)”. Besides, the TD50 (mouse, strain B6C3F1, females, in feed, site: lung, lesion: alveolar/bronchiolar adenoma + alveolar/bronchiolar carcinoma, dosed 78 weeks, study length 96 weeks) came to 682 mg/kg/day and the TD50 (rat, strain Fischer 344, males, in feed, site: liver, lesion: hepatocellular adenoma + hepatocellular carcinoma + neoplastic nodule, dosed 78 weeks, study length 107 weeks) stood at 509 mg/kg/day.

With `CCCCN(CCCC)C(=S)[S-].CCCCN(CCCC)C(=S)[S-].[Zn+2]`, the TD50 runs as follows: (mouse, strain B6AKF1, females, oral dosing, site: any site (literature study), lesion: several types, types named in the paper, dosed 76 weeks, study length 76 weeks) 2330 mg/kg/day (inactive); (mouse, strain B6AKF1, females, oral dosing, site: lung, lesion: adenoma, dosed 76 weeks, study length 76 weeks) 1090 mg/kg/day (inactive); (mouse, strain B6C3F1, females, oral dosing, site: any site (literature study), lesion: several types, types named in the paper, dosed 76 weeks, study length 76 weeks) 731 mg/kg/day (inactive); (mouse, strain B6C3F1, females, oral dosing, site: lung, lesion: adenoma, dosed 76 weeks, study length 76 weeks) 2330 mg/kg/day (inactive); (mouse, strain B6C3F1, males, oral dosing, site: any site (literature study), lesion: several types, types named in the paper, dosed 76 weeks, study length 76 weeks) 252 mg/kg/day (inactive); (mouse, strain B6C3F1, males, oral dosing, site: liver, lesion: hepatoma, dosed 76 weeks, study length 76 weeks) 680 mg/kg/day (inactive). The TD50 (mouse, strain B6C3F1, males, oral dosing, site: lung, lesion: adenoma, dosed 76 weeks, study length 76 weeks) is 1050 mg/kg/day (inactive). For the same molecule, the carcinogen call reads like this: (mouse, strain B6AKF1, females, oral dosing, site: liver, lesion: hepatoma, dosed 76 weeks, study length 76 weeks) “negative (inactive)”; (mouse, strain B6AKF1, males, oral dosing, site: any site (literature study), lesion: several types, types named in the paper, dosed 76 weeks, study length 76 weeks) “negative (inactive)”; (mouse, strain B6AKF1, males, oral dosing, site: liver, lesion: hepatoma, dosed 76 weeks, study length 76 weeks) “negative (inactive)”; (mouse, strain B6AKF1, males, oral dosing, site: lung, lesion: adenoma, dosed 76 weeks, study length 76 weeks) “negative (inactive)”; (mouse, strain B6C3F1, females, oral dosing, site: liver, lesion: hepatoma, dosed 76 weeks, study length 76 weeks) “negative (inactive)”.

For `OCCO`, the carcinogen call (mouse, strain B6C3F1, females, in feed, site: any site (literature study), lesion: several types, types named in the paper, dosed 103 weeks, study length 105 weeks) was “negative (inactive)”. The TD50 is 11300 mg/kg/day (mouse, strain B6C3F1, females, in feed, site: lung, lesion: alveolar/bronchiolar adenoma + alveolar/bronchiolar carcinoma, dosed 103 weeks, study length 105 weeks); 19200 mg/kg/day (inactive) (mouse, strain B6C3F1, males, in feed, site: Harderian gland, lesion: adenoma + carcinoma, dosed 103 weeks, study length 104 weeks); 9980 mg/kg/day (mouse, strain B6C3F1, males, in feed, site: any site (literature study), lesion: several types, types named in the paper, dosed 103 weeks, study length 104 weeks); 48100 mg/kg/day (mouse, strain B6C3F1, males, in feed, site: liver, lesion: hepatocellular adenoma + hepatocellular carcinoma + neoplastic nodule, dosed 103 weeks, study length 104 weeks).

Take `Nc1ncc([N+](=O)[O-])s1`: the carcinogen call is “negative (inactive)” (mouse, strain B6C3F1, females, in feed, site: any site (literature study), lesion: several types, types named in the paper, dosed 104 weeks, study length 104 weeks) and “negative (inactive)” (mouse, strain B6C3F1, males, in feed, site: any site (literature study), lesion: several types, types named in the paper, dosed 104 weeks, study length 104 weeks). Moreover, the TD50 was 109 mg/kg/day (mouse, strain B6C3F1, females, in feed, site: liver, lesion: hepatocellular adenoma + hepatocellular carcinoma + neoplastic nodule, dosed 104 weeks, study length 104 weeks); 63.5 mg/kg/day (mouse, strain B6C3F1, females, in feed, site: lung, lesion: alveolar/bronchiolar adenoma + alveolar/bronchiolar carcinoma, dosed 104 weeks, study length 104 weeks); 326 mg/kg/day (rat, strain Fischer 344, females, in feed, site: any site (literature study), lesion: several types, types named in the paper, dosed 110 weeks, study length 111 weeks); 57.2 mg/kg/day (inactive) (rat, strain Fischer 344, females, in feed, site: uterus, lesion: endometrial stromal polyp, dosed 110 weeks, study length 111 weeks); 445 mg/kg/day (rat, strain Fischer 344, males, in feed, site: all sites + multiple organs, lesion: lymphocytic leukemia + malignant lymphoma + undifferentiated leukemia, dosed 110 weeks, study length 111 weeks); 27.6 mg/kg/day (rat, strain Fischer 344, males, in feed, site: all sites, lesion: leukemia + lymphoma, dosed 110 weeks, study length 111 weeks). For the same molecule, the TD50 (rat, strain Fischer 344, males, in feed, site: any site (literature study), lesion: several types, types named in the paper, dosed 110 weeks, study length 111 weeks) came out at 32.3 mg/kg/day; the TD50 (rat, strain Fischer 344, males, in feed, site: liver, lesion: hepatocellular adenoma + hepatocellular carcinoma + neoplastic nodule, dosed 110 weeks, study length 111 weeks) worked out at 318 mg/kg/day; the TD50 (rat, strain Fischer 344, males, in feed, site: multiple organs, lesion: granulocytic leukemia, dosed 110 weeks, study length 111 weeks) was 90.2 mg/kg/day; the TD50 (rat, strain Sprague-Dawley, females, in feed, site: any site (literature study), lesion: several types, types named in the paper, dosed 46 weeks, study length 66 weeks) amounted to 32.5 mg/kg/day; the TD50 (rat, strain Sprague-Dawley, females, in feed, site: kidney/pelvis, lesion: transitional-cell carcinoma, dosed 46 weeks, study length 66 weeks) was 157 mg/kg/day; the TD50 (rat, strain Sprague-Dawley, females, in feed, site: lung, lesion: alveolar-cell carcinoma, dosed 46 weeks, study length 66 weeks) was 157 mg/kg/day. Moreover, the TD50 (rat, strain Sprague-Dawley, females, in feed, site: mammary gland, lesion: several types, types named in the paper, dosed 46 weeks, study length 66 weeks) was 44.6 mg/kg/day.
